Experimental data reported in ChEMBL document CHEMBL6103619, “Discovery of a Novel CRBN-Recruiting cGAS PROTAC Degrader for the Treatment of Ulcerative Colitis” (J Med Chem, 2025).
Active and inactive are the calls of the source. No cut-off for these calls is given here.

Tests used:
Mus musculus [1] = assay: (§1) Anti-inflammatory activity in DSS-induced ulcerative colitis C57BL/6 mouse model assessed as reduction in NET generation by measuring reduction in citH3 level in colon at 200 mg/kg/day, po preadministered with DSS for 7 days followed by replacement with ultrapure water for 3 days with subsequent compound administration starting from day 4 to 10 and measured on day 11 by Western blot analysis; type: functional, organism-based; details: time 8.0 day
[2] = target: T1, Protein cereblon/Cyclic GMP-AMP synthase (Mus musculus) (UniProt Q8C6L5+Q8C7D2); assay: as §1, with “In vivo inhibition of cGAS signaling pathway” for “Anti-inflammatory activity”, “cGAS protein” for “NET generation by measuring reduction in citH3”; type: functional, organism-based; details: time 8.0 day
T1 sequence (Q8C6L5 whole entry, looked up): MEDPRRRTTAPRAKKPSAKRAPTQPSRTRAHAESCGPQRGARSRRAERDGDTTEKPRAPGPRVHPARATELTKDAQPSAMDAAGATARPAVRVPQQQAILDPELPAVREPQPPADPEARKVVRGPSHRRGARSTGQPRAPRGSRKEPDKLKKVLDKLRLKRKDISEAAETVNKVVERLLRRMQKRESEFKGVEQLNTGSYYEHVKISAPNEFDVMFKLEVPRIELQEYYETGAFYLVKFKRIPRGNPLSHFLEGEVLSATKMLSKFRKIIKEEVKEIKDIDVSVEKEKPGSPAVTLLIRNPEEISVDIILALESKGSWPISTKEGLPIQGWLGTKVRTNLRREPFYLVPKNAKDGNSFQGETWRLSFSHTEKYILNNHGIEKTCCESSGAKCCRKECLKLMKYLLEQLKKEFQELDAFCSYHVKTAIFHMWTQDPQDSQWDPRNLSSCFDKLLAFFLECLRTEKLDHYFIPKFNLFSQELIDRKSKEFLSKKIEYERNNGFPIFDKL
T1 sequence (Q8C7D2 whole entry, looked up): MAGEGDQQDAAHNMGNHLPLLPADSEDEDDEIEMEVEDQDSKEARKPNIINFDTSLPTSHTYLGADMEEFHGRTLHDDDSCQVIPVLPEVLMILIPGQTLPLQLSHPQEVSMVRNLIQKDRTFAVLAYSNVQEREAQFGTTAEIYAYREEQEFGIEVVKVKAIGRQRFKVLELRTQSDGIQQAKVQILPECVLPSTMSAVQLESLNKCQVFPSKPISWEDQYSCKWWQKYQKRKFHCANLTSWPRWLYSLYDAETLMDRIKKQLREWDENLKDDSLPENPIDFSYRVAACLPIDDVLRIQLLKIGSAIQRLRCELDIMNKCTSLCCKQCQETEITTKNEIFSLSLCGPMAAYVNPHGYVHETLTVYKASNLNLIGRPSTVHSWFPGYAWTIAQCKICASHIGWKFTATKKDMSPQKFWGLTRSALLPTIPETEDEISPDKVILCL

[3] = Inhibition of dsDNA-induced cGAS signaling pathway in human THP1-Lucia ISG cells preincubated with compound for 24 hrs followed by HT-DNA addition and measured after 24 hrs by QUANTI-Luc luciferase reagent based assay; type: cell-based
THP-1 [4] = assay: Induction of cGAS degradation in human THP-1 cells at 10 uM preincubated with compound for 40 hrs followed by HT-DNA stimulation and measured after 8 hrs by Western blot analysis relative to control; type: cell-based; details: time 48.0 hrs
[5] = Inhibition of dsDNA-induced cGAS signaling pathway in mouse RAW-Lucia ISG cells preincubated with compound for 24 hrs followed by HT-DNA addition and measured after 24 hrs by QUANTI-Luc luciferase reagent based assay; type: cell-based
Mus musculus [6] = assay: as §1, with “at 50” for “at 200”, “mg/kg/day, ip” for “mg/kg/day, po”; type: functional, organism-based; details: time 8.0 day
THP-1 [7] = assay: Cytotoxicity against human THP-1 cells assessed as reduction in cell viability at >30 uM incubated for 48 hrs by CCK8 assay; type: toxicity, cell-based; details: thp-1, 48 h
[8] = target: T2, Protein cereblon/Cyclic GMP-AMP synthase (Homo sapiens, UniProt Q96SW2+Q8N884); assay: PROTAC activity at CRBN/cGAS in human THP-1 cells assessed as induction of cGAS degradation at 10 uM incubated for 48 hrs by Western blot analysis; type: cell-based
T2 sequence (Q8N884 whole entry, looked up): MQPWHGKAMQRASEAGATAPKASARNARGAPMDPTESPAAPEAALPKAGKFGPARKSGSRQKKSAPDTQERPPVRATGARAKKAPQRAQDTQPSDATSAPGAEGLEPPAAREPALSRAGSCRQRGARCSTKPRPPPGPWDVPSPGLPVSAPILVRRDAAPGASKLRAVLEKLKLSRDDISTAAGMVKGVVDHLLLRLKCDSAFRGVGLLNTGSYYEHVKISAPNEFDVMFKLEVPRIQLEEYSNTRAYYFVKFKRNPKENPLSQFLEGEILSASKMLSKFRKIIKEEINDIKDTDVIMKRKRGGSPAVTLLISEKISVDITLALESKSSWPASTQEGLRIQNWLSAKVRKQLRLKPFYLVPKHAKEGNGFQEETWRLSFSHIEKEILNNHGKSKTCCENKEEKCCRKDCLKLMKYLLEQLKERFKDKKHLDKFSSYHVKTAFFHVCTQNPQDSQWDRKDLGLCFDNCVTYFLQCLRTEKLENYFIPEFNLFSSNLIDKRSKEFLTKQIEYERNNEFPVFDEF
T2 sequence (Q96SW2 whole entry, looked up): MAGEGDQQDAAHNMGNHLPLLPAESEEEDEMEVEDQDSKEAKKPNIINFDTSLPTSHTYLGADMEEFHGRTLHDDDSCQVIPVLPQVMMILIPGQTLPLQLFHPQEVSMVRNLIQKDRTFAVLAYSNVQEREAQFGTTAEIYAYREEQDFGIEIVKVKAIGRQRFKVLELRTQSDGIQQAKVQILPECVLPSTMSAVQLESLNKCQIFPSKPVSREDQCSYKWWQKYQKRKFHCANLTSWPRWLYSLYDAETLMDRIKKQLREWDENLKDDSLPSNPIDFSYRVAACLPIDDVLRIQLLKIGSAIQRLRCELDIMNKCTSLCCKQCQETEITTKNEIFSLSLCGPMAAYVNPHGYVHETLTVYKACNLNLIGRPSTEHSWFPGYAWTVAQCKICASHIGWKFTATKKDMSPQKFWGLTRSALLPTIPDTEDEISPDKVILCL

[9] = target: T1, Protein cereblon/Cyclic GMP-AMP synthase (Mus musculus); assay: In vivo inhibition of cGAS signaling pathway in DSS-induced ulcerative colitis C57BL/6 mouse model assessed as reduction in cGAS protein level in colon at 50 mg/kg/day, ip preadministered with DSS for 7 days followed by replacement with ultrapure water for 3 days with subsequent compound administration starting from day 4 to 10 and measured on day 11 by Western blot analysis; type: functional, organism-based; details: time 8.0 day
[10] = target: T2, Protein cereblon/Cyclic GMP-AMP synthase; assay: PROTAC activity at CRBN/cGAS in human THP-1 cells assessed as induction of cGAS degradation at 10 uM preincubated with compound for 40 hrs followed by HT-DNA stimulation and measured after 8 hrs by Western blot analysis relative to control; type: cell-based; details: time 48.0 hrs

IC50 [3] [µM]	IC50 [5] [µM]	Activity [10] [%]	SMILES	further results
			Nc1ccc(O)c(C(=O)O)c1	Activity (Mus musculus [1]): Active; inhibition [2]: Active; Minor Changes Observed
> 50	> 50		Nc1cccc2c1CN(C1CCC(=O)NC1=O)C2=O (configuration not stated) [LENALIDOMIDE]	Activity (THP-1 [4]): 0.3%
4.1	13.1		Cn1ccc(-c2cc(Cl)c(Cl)c3[nH]c4c(c23)CN(C(=O)CO)CC4)n1	Activity (Mus musculus [6]): Active; Activity (THP-1 [7]): Toxic; Activity [8]: inactive; inhibition [9]: Active; Minor Changes Observed; Activity (THP-1 [4]): 8.3%
			CN1C(=O)CCC(N2Cc3c(C#CCCCC(=O)NCC(=O)N4CCc5[nH]c6c(Cl)c(Cl)cc(-c7ccn(C)n7)c6c5C4)cccc3C2=O)C1=O (configuration not stated)	Activity [8]: inactive
> 50	> 50	23.9	O=C1CCC(N2C(=O)c3cccc(NCCCCCCCCC(=O)N4CCC(Cn5cc(-c6cc(Cl)c(Cl)c7[nH]c8c(c67)CN(C(=O)CO)CC8)cn5)CC4)c3C2=O)C(=O)N1 (configuration not stated)	
25.6	35.6	40.4	Cn1ccc(-c2cc(Cl)c(Cl)c3[nH]c4c(c23)CN(C(=O)CCCC#Cc2cccc3c2CN(C2CCC(=O)NC2=O)C3=O)CC4)n1 (configuration not stated)	
12.2	25.6	58.7	Cn1ccc(-c2cc(Cl)c(Cl)c3[nH]c4c(c23)CN(C(=O)CNC(=O)CCCNc2cccc3c2C(=O)N(C2CCC(=O)NC2=O)C3=O)CC4)n1 (configuration not stated)	
> 50	> 50	10.5	O=C1CCC(N2C(=O)c3cccc(NCCCCC(=O)N4CCC(Cn5cc(-c6cc(Cl)c(Cl)c7[nH]c8c(c67)CN(C(=O)CO)CC8)cn5)CC4)c3C2=O)C(=O)N1 (configuration not stated)	
> 50	> 50	13.9	O=C1CCC(N2C(=O)c3cccc(NCCOCCOCCOCC(=O)N4CCC(Cn5cc(-c6cc(Cl)c(Cl)c7[nH]c8c(c67)CN(C(=O)CO)CC8)cn5)CC4)c3C2=O)C(=O)N1 (configuration not stated)	
> 50	> 50	35.6	O=C1CCC(N2C(=O)c3cccc(NCCCCCCCC(=O)N4CCC(Cn5cc(-c6cc(Cl)c(Cl)c7[nH]c8c(c67)CN(C(=O)CO)CC8)cn5)CC4)c3C2=O)C(=O)N1 (configuration not stated)	
> 50	> 50	6.3	Cn1ccc(-c2cc(Cl)c(Cl)c3[nH]c4c(c23)CN(C(=O)CNC(=O)CC2CCN(C(=O)COc3cccc5c3C(=O)N(C3CCC(=O)NC3=O)C5=O)CC2)CC4)n1 (configuration not stated)	
8.8	15.1	57.7	Cn1ccc(-c2cc(Cl)c(Cl)c3[nH]c4c(c23)CN(C(=O)CNC(=O)CCCCC#Cc2cccc3c2CN(C2CCC(=O)NC2=O)C3=O)CC4)n1 (configuration not stated)	
